Values after ≈ are worked out from the molar mass of the structure shown. Active and inactive are the calls of the source. No cut-off for these calls is given here.
Assays:
Homo sapiens [1] = species: Homo sapiens; experiment: Inhibition of human platelet cPLA2alpha assessed as inhibition of arachidonic acid production at 33 nM after 60 mins by UV-reverse phase HPLC analysis
[2] = Partition coefficient, log P at 5 mM by reverse phase HPLC analysis; type: physicochemical; conditions: octanol/water
[3] = Inhibition of cPLA2alpha
Homo sapiens [4] = species: Homo sapiens; experiment: Inhibition of human platelet cPLA2alpha assessed as inhibition of arachidonic acid production at 1 uM after 60 mins by UV-reverse phase HPLC analysis
[5] = Thermodynamic solubility in sodium phosphate buffer of pH 7.4 by UV-reverse phase HPLC analysis; type: physicochemical
[6] = Metabolic stability in rat liver microsomes assessed as compound remaining after 30 mins by HPLC/MS analysis; type: ADME, Microsome; conditions: read-out: Stability
[7] = Inhibition of human platelet cPLA2alpha assessed as inhibition of arachidonic acid production after 60 mins by UV-reverse phase HPLC analysis; conditions: 1 h
[8] = Drug level in C57Bl6 mouse bile at 100 mg/kg, po after 2 hrs by HPLC/MS analysis; type: ADME, organism-based; parameters: dose 100 mg/kg, route oral; conditions: read-out: Drug uptake
[9] = Drug level in C57Bl6 mouse plasma at 10 mg/kg, po after 1 hr by UV-reverse phase HPLC analysis; type: ADME, organism-based; parameters: dose 10 mg/kg, route oral; conditions: read-out: Drug uptake
[10] = Drug level in C57Bl6 mouse plasma at 10 mg/kg, iv after 5 mins by UV-reverse phase HPLC analysis; type: ADME, organism-based; parameters: dose 10 mg/kg, route intravenous; conditions: read-out: Drug uptake
[11] = Drug level in C57Bl6 mouse bile at 10 mg/kg, iv after 30 mins by HPLC/MS analysis; type: ADME, organism-based; parameters: dose 10 mg/kg, route intravenous; conditions: read-out: Drug uptake
[12] = Drug level in C57Bl6 mouse plasma at 100 mg/kg, po after 1 hr by UV-reverse phase HPLC analysis; type: ADME, organism-based; parameters: dose 100 mg/kg, route oral; conditions: read-out: Drug uptake
[13] = Drug level in C57Bl6 mouse plasma at 10 mg/kg, po after 2 hrs by UV-reverse phase HPLC analysis; type: ADME, organism-based; parameters: dose 10 mg/kg, route oral; conditions: read-out: Drug uptake
[14] = Drug level in C57Bl6 mouse plasma at 10 mg/kg, iv after 30 mins by UV-reverse phase HPLC analysis; type: ADME, organism-based; parameters: dose 10 mg/kg, route intravenous; conditions: read-out: Drug uptake
[15] = Drug level in C57Bl6 mouse plasma at 100 mg/kg, po after 2 hrs by UV-reverse phase HPLC analysis; type: ADME, organism-based; parameters: dose 100 mg/kg, route oral; conditions: read-out: Drug uptake
[16] = biological target: Phospholipase A2, major isoenzyme (Sus scrofa) (UniProt P00592); experiment: Inhibition of pig pancreas group 1B sPLA2 assessed as inhibition of POPG cleavage at 10 uM after 30 mins by HPLC analysis
Phospholipase A2, major isoenzyme (Sus scrofa), sequence (P00592 23-146 limits assumed): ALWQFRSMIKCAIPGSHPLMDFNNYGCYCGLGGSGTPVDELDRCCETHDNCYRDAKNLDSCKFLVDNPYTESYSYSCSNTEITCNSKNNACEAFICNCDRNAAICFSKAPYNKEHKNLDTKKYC

[17] = biological target: T1, 85/88 kDa calcium-independent phospholipase A2 (Rattus norvegicus) (UniProt P97570); experiment: Inhibition of Sprague-Dawley rat brain iPLA2 assessed as inhibition of substrate cleavage at 10 uM after 60 mins by HPLC analysis
T1 sequence (whole entry): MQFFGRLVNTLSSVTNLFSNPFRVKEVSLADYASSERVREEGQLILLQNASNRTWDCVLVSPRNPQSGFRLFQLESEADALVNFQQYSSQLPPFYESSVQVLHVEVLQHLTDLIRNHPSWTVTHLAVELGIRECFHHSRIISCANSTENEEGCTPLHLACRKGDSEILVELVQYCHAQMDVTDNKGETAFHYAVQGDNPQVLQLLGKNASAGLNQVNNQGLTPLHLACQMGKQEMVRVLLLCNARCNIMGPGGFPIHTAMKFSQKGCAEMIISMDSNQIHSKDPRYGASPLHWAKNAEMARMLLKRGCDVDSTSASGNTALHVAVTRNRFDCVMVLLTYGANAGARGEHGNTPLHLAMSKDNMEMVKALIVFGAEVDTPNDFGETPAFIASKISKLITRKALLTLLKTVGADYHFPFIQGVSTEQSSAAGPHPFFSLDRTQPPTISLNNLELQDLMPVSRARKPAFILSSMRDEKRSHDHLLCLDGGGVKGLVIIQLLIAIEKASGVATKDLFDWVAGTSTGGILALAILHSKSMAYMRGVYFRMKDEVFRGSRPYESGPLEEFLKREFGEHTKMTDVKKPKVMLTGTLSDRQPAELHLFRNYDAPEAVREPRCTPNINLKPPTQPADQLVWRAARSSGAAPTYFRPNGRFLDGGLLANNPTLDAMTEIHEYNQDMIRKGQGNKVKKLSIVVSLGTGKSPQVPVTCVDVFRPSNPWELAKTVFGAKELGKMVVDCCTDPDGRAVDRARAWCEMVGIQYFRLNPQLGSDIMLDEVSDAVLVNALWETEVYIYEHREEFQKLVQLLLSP

SMILES | logP at 5000 µM [2] | solubility thermodynamic [5] [µg/mL] | remaining at 0.5 h [6] [%] | IC50 [7] [nM] | also measured
CCCCCCCCc1ccc(OCC(=O)Cn2ccc3cc(C(=O)O)ccc32)cc1 | 6.3 | – | – | – | inhibition (Homo sapiens [1]): 47%; IC50 [3]: 120 nM
Cc1cc(-c2ccccc2)ccc1OCC(=O)Cn1ccc2cc(C(=O)O)ccc21 | – | < 3 | 33 | > 1000 | inhibition (Homo sapiens [4]): 16%
O=C(COc1ccc(-c2ccccc2)cc1)Cn1ccc2cc(C(=O)O)ccc21 | 3.2 | 5 (≈ 13 µM) | 7 | 64 | –
CC(C)(c1ccccc1)c1ccc(OCC(=O)Cn2ccc3cc(C(=O)O)ccc32)cc1 | 4.1 | 25 (≈ 58.5 µM) | 0 | 47 | –
CC(C)C(=O)c1cn(CC(O)COc2ccc(Oc3ccccc3)cc2)c2ccc(C(=O)O)cc12 (stereo unspecified) | – | – | – | – | concentration at 2 h [8]: 42000 ng/mL; concentration at 1 h [9]: 42000 ng/mL; concentration at 5 min [10]: 6200 ng/mL; concentration at 0.5 h [11]: 96000 ng/mL; concentration at 1 h [12]: 1700 ng/mL; concentration at 2 h [13]: 34000 ng/mL; concentration at 0.5 h [14]: 500 ng/mL; concentration at 2 h [15]: 300 ng/mL
O=C(O)CC[C@@H](Cc1ccc(OCc2ccccc2)cc1)NC(=O)CCCCCCc1ccccc1 | – | – | – | – | inhibition [16]: 89%
CC(=O)c1cn(CC(=O)COc2ccc(OCCOc3ccccc3)cc2)c2ccc(C(=O)O)cc12 | 2.6 | 34 (≈ 69.7 µM) | 68 | 41 | –
O=C(COc1ccc(-c2ccc(F)cc2)cc1)Cn1ccc2cc(C(=O)O)ccc21 | 3.2 | < 3 | 14 | 37 | –
CC(=O)c1cn(CC(=O)COc2ccc(Oc3ccccc3)cc2)c2ccc(C(=O)O)cc12 | 2.6 | 111 (≈ 250 µM) | 41 | 12 | –
O=C(COc1cccc(-c2ccccc2)c1)Cn1ccc2cc(C(=O)O)ccc21 | 3.1 | 16 (≈ 41.5 µM) | 13 | 210 | –
NC(=O)c1ccc2c(ccn2CC(=O)COc2ccccc2-c2ccccc2)c1 | 2.3 | < 3 | 20 | – | inhibition (Homo sapiens [4]): inactive
COc1ccc2c(c1)c(CC(=O)O)c(C)n2C(=O)c1ccc(Cl)cc1 [INDOMETHACIN] | 2.9 | 246 (≈ 688 µM) | – | – | –
CCCCCCOc1ccc(OCC(=O)Cn2ccc3cc(C(=O)O)ccc32)cc1 | 4.6 | 7 (≈ 17.1 µM) | 38 | 34 | –
O=C(COc1ccc(OCCOc2ccccc2)cc1)Cn1ccc2cc(C(=O)O)ccc21 | 3.1 | 31 (≈ 69.6 µM) | 21 | 110 | –
NC(=O)c1ccc2c(ccn2CC(=O)COc2ccc(-c3ccccc3)cc2)c1 | 2.4 | < 3 | 33 | 150 | –
COc1ccc(-c2ccc(OCC(=O)Cn3ccc4cc(C(=O)O)ccc43)cc2)cc1 | 3 | < 3 | 2 | 90 | –
CCCCCCCCCOc1ccc(OCC(=O)Cn2ccc3cc(C(=O)O)ccc32)cc1 | 6.5 | < 3 | 74 | 23 | –
CCCCCCCCOc1ccc(OCC(=O)Cn2ccc3cc(C(=O)O)ccc32)cc1 | 5.9 | < 3 | 79 | 26 | –
O=C(COc1ccc(-c2cccc(Cl)c2)cc1)Cn1ccc2cc(C(=O)O)ccc21 | 3.8 | < 3 | 31 | 19 | –
CCCCCCCOc1ccc(OCC(=O)Cn2ccc3cc(C(=O)O)ccc32)cc1 | 5.2 | < 3 | 57 | 32 | –
CC(C)c1ccc(-c2ccc(OCC(=O)Cn3ccc4cc(C(=O)O)ccc43)cc2)cc1 | 4.7 | < 3 | 40 | 35 | –
CC(=O)c1cn(CC(=O)COc2ccc(Oc3ccc(C(F)(F)F)cc3)cc2)c2ccc(C(=O)O)cc12 | 3.5 | < 3 | 73 | 10 | –
O=C(COc1ccc(-c2ccc(Cl)cc2)cc1)Cn1ccc2cc(C(=O)O)ccc21 | 3.9 | < 3 | 46 | 27 | –
O=C1O/C(=C/Br)CCC1c1cccc2ccccc12 (stereo unspecified) | – | – | – | – | inhibition [17]: 50%
O=C(COc1ccc(-c2cccc(F)c2)cc1)Cn1ccc2cc(C(=O)O)ccc21 | 3.2 | < 3 | 22 | 41 | –
COc1cc(-c2ccccc2)ccc1OCC(=O)Cn1ccc2cc(C(=O)O)ccc21 | 2.9 | 6 (≈ 14.4 µM) | 72 | – | inhibition (Homo sapiens [4]): inactive

Second part, led by results:

logP at 5000 µM [2] | solubility thermodynamic [5] [µg/mL] | remaining at 0.5 h [6] [%] | IC50 [7] [nM] | SMILES | also measured
3.1 | 21 (≈ 54.5 µM) | 81 | – | O=C(COc1ccccc1-c1ccccc1)Cn1ccc2cc(C(=O)O)ccc21 | inhibition (Homo sapiens [4]): inactive
3.7 | < 3 | 22 | 40 | Cc1ccc(-c2ccc(OCC(=O)Cn3ccc4cc(C(=O)O)ccc43)cc2)cc1 | –
2.3 | < 3 | 15 | 250 | NC(=O)c1ccc2c(ccn2CC(=O)COc2cccc(-c3ccccc3)c2)c1 | –
3.7 | < 3 | 61 | > 1000 | O=C(COc1ccc(-c2ccccc2)cc1Cl)Cn1ccc2cc(C(=O)O)ccc21 | inhibition (Homo sapiens [4]): 29%
7.1 | < 3 | 67 | 20 | CCCCCCCCCCOc1ccc(OCC(=O)Cn2ccc3cc(C(=O)O)ccc32)cc1 | –
3.3 | 5 (≈ 12.4 µM) | 16 | 230 | O=C(COc1ccc(-c2ccccc2)cc1F)Cn1ccc2cc(C(=O)O)ccc21 | –
3.3 | 18 (≈ 45.1 µM) | 7 | 54 | O=C(COc1ccc(Cc2ccccc2)cc1)Cn1ccc2cc(C(=O)O)ccc21 | –
3.1 | 43 (≈ 107 µM) | 3 | 36 | O=C(COc1ccc(Oc2ccccc2)cc1)Cn1ccc2cc(C(=O)O)ccc21 | –
5.5 | < 3 | 54 | 120 | CCCCCCCCc1ccc(OCC(=O)Cn2ccc3cc(C(N)=O)ccc32)cc1 | IC50 [3]: 35 nM
4 | < 3 | 57 | 19 | O=C(COc1ccc(Oc2ccc(C(F)(F)F)cc2)cc1)Cn1ccc2cc(C(=O)O)ccc21 | –

— ChEMBL document CHEMBL1155440, “1-(5-carboxyindol-1-yl)propan-2-one inhibitors of human cytosolic phospholipase A(2)alpha with reduced lipophilicity: synthesis, biological activity, metabolic stability, solubility, bioavailability, and topical in vivo activity” (J Med Chem, 2010)
